Data as given in patent publication US20250206708A1, “AN OXAZIRIDINE PLATFORM FOR TARGETING FUNCTIONAL ALLOSTERIC METHIONINE SITES” (Novartis AG, priority 2022, published 2025).

Assays:
CDK6 = CDK6 (Homo sapiens, UniProt Q00534); test: Gel-based ABPP, isoform specificity on CDK6; type: binding; details: dose-dependent treatment
Method: Activity-based protein profiling (ABPP) was performed as follows. CDK4 was diluted in PBS to 50 nM, then 50 μL was added to each well of a 96-well PCR plate. Ligands were dissolved fresh in DMSO to 5 μM, and 1 μL was added so each well contained a unique ligand at the indicated concentration. Wells were mixed and allowed to incubate 1 h at 23° C. Ligands were then chased with fresh Compound 301 with 1 μL of 5 μM added to each well (100 nM final), wells mixed and allowed to incubate 1 h at 23° C. Excess oxaziridine was quenched with N-acetyl methionine via addition of 1 μL of 10 mM DMSO stock (200 μM final), wells mixed and allowed to incubate 1 h at 23° C. A stock was prepared 1:5 of 12.5 μM DBCO-Cy3 in DMSO: 1.2% SDS/PBS. To each well was added 6 μL of this stock, the wells mixed and allowed to incubate overnight protected from light at 23° C. The next morning 30 μL of 4×Laemmli's buffer containing 10% BME was added to each well. The plate was sealed and brought to 95° C. for 6 min. Samples were loaded and separated on precast 4-20% TGX gels and scanned by ChemiDoc MP for measuring in-gel fluorescence. After that, the total protein level on the gel was assayed by silver staining according to the manufacturer's protocol and scanned by ChemiDoc MP.
The isoform specificity was tested with two closely-related congeners, CDK1 and CDK6.

CDK4 = test: Competition and pulldown of Compound 300/Compound 148 in CDK4-overexpressing MCF-7 lysate; type: binding, human; details: varying Compound 148 prior to 500 μM Compound 300, CDK4 overexpression
Method: MCF-7 cells were grown to 40% confluency in 3 mL DMEM media (Gibco) containing 10% (v/v) FBS in a 6-well chamber at 37° C., 5% CO2. Transfection was then performed as per Lipofectamine 2000 protocol (Invitrogen). Briefly, 0 or 2.5 μg of pcDNA3.1(+)-FLAG-TEV-CDK4 expression construct was introduced at 0:0, 2:1 and 3:1 transfection reagent:DNA. The lipid-DNA complex was incubated for 30 mins at 23° C. in Opti-MEM media (Gibco). Then, 250 μL complex was added to 2.75 mL DMEM containing no FBS. 3 mL DMEM+DNA was added to each well, while control wells received DMEM only. Cells were incubated for 6H at 37° C., 5% CO2. The media was then aspirated, and cells were given 3 mL DMEM+10% FBS and left to incubate for an additional 30H at 37° C., 5% CO2. Cells were washed 3× in 500 μL ice-cold PBS then harvested by scraping in 200 μL ice-cold PBS+1% Triton X-100 containing EDTA-free protease inhibitors (Roche). Cells were lysed at 4° C. for 30 mins while rocking. Lysate was clarified by centrifugation at 10,000×g at 4° C. for 15 mins. The supernatant was then transferred to a fresh prechilled 1.5 mL microcentrifuge tube. Protein concentration was normalized to 2.0 mg/mL via BCA assay (Pierce; cat no. 23225). […] CDK4 expression was quantified by densitometry (ImageJ) and normalized to the actin loading control. […]

CDK6, sequence (Q00534 whole entry, canonical isoform): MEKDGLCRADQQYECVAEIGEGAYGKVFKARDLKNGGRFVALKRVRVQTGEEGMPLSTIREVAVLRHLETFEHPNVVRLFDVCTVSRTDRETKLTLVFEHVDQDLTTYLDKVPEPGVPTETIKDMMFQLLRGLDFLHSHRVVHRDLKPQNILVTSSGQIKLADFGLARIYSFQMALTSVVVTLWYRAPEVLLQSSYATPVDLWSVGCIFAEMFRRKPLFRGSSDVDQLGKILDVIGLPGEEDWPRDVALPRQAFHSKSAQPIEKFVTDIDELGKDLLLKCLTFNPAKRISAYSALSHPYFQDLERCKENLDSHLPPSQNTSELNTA

- labeling against CDK6 by gel analysis (CDK6): no dose-dependent labeling
Compound: O=C(N1CC2COCC2C1)N1OC1c1ccccc1 (centres unmarked) [Compound 148]
- CDK4 signal in eluted proteins after pulldown (competition with Compound 300) (CDK4): dose-dependent decrease in signal in eluted proteins
